Data reported in US20240294545A1 (CSPC Zhongqi Pharmaceutical Technology (Shijiazhuang) Co., …, priority 2020, published 2024).

The compounds below were run against ATM (Homo sapiens (Human), UniProt Q13315) (assay: Caliper mobility shift assay for ATM). Conditions: read-out: IC50 of inhibitory activity on ATM kinase.
Assay type: biochemical
Method: 1.2 Determination of the Inhibitory Activities of Compounds on ATM: Caliper Mobility Shift Assay for ATM
To a 96-well plate, 98 μL of DMSO and 2 μL of the 10 mM stock solution were added and mixed evenly so that the concentration of the solution was 200 μM.
Based on the inhibitory rates of the compound at different concentrations, IC50 was calculated according to the formula: Y=Bottom+(Top−Bottom)/(1+(IC50/X)^HillSlope).

Chain of ATM (Q13315 whole entry): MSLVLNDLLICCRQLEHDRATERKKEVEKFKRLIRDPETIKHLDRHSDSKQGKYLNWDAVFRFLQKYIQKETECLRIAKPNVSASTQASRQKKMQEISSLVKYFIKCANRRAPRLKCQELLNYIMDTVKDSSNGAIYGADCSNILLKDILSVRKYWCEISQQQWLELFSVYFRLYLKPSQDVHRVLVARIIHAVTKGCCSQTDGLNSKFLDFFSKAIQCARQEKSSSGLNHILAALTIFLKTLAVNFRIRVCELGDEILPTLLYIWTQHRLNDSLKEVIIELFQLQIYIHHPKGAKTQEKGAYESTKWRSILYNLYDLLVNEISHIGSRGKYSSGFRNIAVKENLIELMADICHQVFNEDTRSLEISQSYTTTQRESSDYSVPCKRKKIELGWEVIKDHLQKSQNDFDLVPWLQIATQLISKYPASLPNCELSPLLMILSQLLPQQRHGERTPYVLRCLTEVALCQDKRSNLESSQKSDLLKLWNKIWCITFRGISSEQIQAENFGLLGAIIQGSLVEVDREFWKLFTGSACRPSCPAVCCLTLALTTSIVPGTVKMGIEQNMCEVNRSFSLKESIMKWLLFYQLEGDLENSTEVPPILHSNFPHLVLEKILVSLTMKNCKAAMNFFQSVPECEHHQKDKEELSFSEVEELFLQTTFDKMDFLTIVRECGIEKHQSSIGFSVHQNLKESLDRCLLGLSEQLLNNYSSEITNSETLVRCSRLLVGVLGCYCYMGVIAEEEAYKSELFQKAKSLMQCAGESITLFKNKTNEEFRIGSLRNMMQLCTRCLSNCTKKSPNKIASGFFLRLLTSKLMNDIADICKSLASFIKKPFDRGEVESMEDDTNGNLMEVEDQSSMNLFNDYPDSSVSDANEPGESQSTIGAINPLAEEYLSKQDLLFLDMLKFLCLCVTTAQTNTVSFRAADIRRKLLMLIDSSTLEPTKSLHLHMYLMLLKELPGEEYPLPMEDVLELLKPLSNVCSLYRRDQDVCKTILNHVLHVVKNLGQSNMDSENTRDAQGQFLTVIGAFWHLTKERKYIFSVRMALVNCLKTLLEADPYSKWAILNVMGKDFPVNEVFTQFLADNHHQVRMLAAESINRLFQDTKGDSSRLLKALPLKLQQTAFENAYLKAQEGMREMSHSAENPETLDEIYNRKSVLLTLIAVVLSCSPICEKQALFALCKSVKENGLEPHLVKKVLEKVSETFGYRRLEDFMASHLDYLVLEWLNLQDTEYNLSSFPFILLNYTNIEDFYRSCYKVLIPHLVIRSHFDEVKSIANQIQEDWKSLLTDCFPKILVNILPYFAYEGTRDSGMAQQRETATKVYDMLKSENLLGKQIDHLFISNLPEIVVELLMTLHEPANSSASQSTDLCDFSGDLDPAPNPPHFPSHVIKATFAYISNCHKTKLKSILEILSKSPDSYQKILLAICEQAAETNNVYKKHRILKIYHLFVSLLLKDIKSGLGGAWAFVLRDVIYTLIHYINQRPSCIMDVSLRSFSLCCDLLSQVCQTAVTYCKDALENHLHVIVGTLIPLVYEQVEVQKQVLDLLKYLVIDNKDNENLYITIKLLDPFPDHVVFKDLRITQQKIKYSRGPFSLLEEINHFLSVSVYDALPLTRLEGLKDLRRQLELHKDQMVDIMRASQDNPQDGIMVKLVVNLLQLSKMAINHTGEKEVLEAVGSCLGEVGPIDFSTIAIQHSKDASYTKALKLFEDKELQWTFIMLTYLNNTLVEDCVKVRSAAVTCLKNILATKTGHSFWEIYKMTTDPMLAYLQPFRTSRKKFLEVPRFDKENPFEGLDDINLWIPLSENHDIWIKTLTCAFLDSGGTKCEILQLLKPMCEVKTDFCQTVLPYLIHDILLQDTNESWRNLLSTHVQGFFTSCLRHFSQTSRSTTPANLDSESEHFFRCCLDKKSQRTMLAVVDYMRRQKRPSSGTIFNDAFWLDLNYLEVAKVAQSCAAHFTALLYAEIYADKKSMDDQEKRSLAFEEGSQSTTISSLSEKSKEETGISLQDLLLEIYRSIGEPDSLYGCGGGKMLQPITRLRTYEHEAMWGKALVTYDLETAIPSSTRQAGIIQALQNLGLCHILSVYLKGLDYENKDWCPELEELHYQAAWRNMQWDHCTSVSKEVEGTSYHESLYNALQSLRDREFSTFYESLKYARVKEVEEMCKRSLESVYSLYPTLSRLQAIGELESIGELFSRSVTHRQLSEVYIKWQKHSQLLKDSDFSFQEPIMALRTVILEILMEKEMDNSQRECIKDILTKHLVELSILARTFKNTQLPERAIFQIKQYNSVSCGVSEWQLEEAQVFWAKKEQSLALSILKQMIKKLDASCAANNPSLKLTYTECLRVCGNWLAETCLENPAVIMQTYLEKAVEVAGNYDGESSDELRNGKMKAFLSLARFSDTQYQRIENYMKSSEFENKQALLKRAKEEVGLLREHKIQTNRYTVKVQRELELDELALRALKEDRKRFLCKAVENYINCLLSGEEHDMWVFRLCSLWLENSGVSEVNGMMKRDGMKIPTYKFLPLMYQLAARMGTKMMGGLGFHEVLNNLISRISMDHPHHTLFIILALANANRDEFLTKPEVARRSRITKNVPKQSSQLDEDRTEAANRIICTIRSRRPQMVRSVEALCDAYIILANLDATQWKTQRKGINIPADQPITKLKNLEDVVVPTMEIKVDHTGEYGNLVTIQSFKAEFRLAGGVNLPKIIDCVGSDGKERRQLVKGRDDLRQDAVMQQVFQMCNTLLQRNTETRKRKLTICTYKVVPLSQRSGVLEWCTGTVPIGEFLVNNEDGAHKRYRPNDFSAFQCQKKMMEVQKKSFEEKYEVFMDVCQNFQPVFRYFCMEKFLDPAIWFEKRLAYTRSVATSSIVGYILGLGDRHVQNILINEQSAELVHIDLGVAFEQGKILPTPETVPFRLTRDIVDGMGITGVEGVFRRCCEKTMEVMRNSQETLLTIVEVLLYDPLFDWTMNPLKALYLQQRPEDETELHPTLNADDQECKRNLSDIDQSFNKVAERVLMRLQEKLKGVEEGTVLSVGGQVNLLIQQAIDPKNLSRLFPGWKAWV

| Structure (SMILES) | IC50 [pM] |
| --- | --- |
| Cn1c(=O)n2c3c4c(c(-c5ccc(OCCCN6CCCCC6)nc5)ccc4ncc31)OCC2(C)C [Example A-67, 2,10,10-trimethyl-7-(6-(3-(piperidin-1-yl)propoxy)pyridin-3-yl)-9,10-dihydro-8-oxa-2,4,10a-triazanaphtho[2,1,8-cde]azulen-1(2H)-one] | 260 |
| Cn1c(=O)n2c3c4c(c(-c5ccc(OCCCN6CCCCC6)nc5)c(F)cc4ncc31)OCC21CC1 [Example A-11, 6-fluoro-2-methyl-7-(6-(3-(piperidin-1-yl)propoxy)pyridin-3-yl)-2,9-dihydro-1H-spiro[8-oxa-2,4,10a-triazanaphtho[2,1,8-cde]azulene-10,1-cyclopropan]-1-one] | 540 |
| CN(C)CCCOc1ccc(-c2ccc3ncc4c5c3c2OCC2(CC2)n5c(=O)n4C)cn1 [Example A-179, 7-(6-(3-(dimethylamino)propoxy)pyridin-3-yl)-2-methyl-2,9-dihydro-1H-spiro[8-oxa-2,4,10a-triazanaphtho[2,1,8-cde]azulene-10,1′-cyclopropan]-1-one] | 370 |
| CC1CCN(CCCOc2ccc(-c3ccc4ncc5c6c4c3OC[C@H](C)n6c(=O)n5C)cn2)CC1 [Example A-208, (S)-2,10-dimethyl-7-(6-(3-(4-methylpiperidin-1-yl)propoxy)pyridin-3-yl)-9,10-dihydro-8-oxa-2,4,10a-triazanaphtho[2,1,8-cde]azulen-1(2H)-one] | 290 |
| Cn1c(=O)n2c3c4c(c(-c5ccc(OCCCN6CCCCC6)nc5)ccc4ncc31)OCC21CCC1 [Example A-176, 2-methyl-7-(6-(3-(piperidin-1-yl)propoxy)pyridin-3-yl)-2,9-dihydro-1H-spiro[8-oxa-2,4,10a-triazanaphtho[2,1,8-cde]azulene-10,1′-cyclobutan]-1-one] | 170 |
| Cn1c(=O)n2c3c4c(c(-c5ccc(OCCCN6CCCCC6)nc5)c(F)cc4ncc31)OCC21CCC1 [Example A-28, 6-fluoro-2-methyl-7-(6-(3-(piperidin-1-yl)propoxy)pyridin-3-yl)-2,9-dihydro-1H-spiro[8-oxa-2,4,10a-triazanaphtho[2,1,8-cde]azulene-10,1′-cyclobutan]-1-one] | 280 |
| CC[C@H]1COc2c(-c3ccc(OCCCN4CCCCC4)nc3)ccc3ncc4c(c23)n1c(=O)n4C [Example A-186, (S)-10-ethyl-2-methyl-7-(6-(3-(piperidin-1-yl)propoxy)pyridin-3-yl)-9,10-dihydro-8-oxa-2,4,10a-triazanaphtho[2,1,8-cde]azulen-1(2H)-one] | 380 |
| C[C@@H]1COc2c(-c3ccc(OCCCN4CCCCC4)nc3)c(F)cc3ncc4c(c23)n1c(=O)n4C [Example A-4, (R)-6-fluoro-2,10-dimethyl-7-(6-(3-(piperidin-1-yl)propoxy)pyridin-3-yl)-9,10-dihydro-8-oxa-2,4,10a-triazanaphtho[2,1,8-cde]azulen-1(2H)-one] | 900 |
| CN(C)CCCOc1ccc(-c2ccc3ncc4c5c3c2OCC(C)(C)n5c(=O)n4C)cn1 [Example A-180, 7-(6-(3-(dimethylamino)propoxy)pyridin-3-yl)-2,10,10-trimethyl-9,10-dihydro-8-oxa-2,4,10a-triazanaphtho[2,1,8-cde]azulen-1(2H)-one] | 260 |
| Cn1c(=O)n2c3c4c(c(-c5ccc(OCCCN6CCCCC6)nc5)c(F)cc4ncc31)OC[C@@H]2Cc1ccccc1 [Example A-13, (S)-10-benzyl-6-fluoro-2-methyl-7-(6-(3-(piperidin-1-yl)propoxy)pyridin-3-yl)-9,10-dihydro-8-oxa-2,4,10a-triazanaphtho[2,1,8-cde]azulen-1(2H)-one] | 400 |
| C[C@H]1COc2c(-c3ccc(OCCCN4CCC5(CC4)COC5)nc3)c(F)cc3ncc4c(c23)n1c(=O)n4C [Example A-171, (S)-7-(6-(3-(2-oxa-7-azaspiro[3.5]nonan-7-yl)propoxy)pyridin-3-yl)-6-fluoro-2,10-dimethyl-9,10-dihydro-8-oxa-2,4,10a-triazanaphtho[2,1,8-cde]azulen-1(2H)-one] | 420 |
| C[C@H]1COc2c(-c3ccc(OCCCN4CCC(C)(C)CC4)nc3)ccc3ncc4c(c23)n1c(=O)n4C [Example A-207, (S)-7-(6-(3-(4,4-dimethylpiperidin-1-yl)propoxy)pyridin-3-yl)-2,10-dimethyl-9,10-dihydro-8-oxa-2,4,10a-triazanaphtho[2,1,8-cde]azulen-1(2H)-one] | 440 |
| Cn1c(=O)n2c3c4c(c(-c5ccc(OCCCN6CC[C@H](C#N)C6)nc5)c(F)cc4ncc31)OCC21CCC1 [Example A-160] | 430 |
| Cn1c(=O)n2c3c4c(c(-c5ccc(OCCCN6CCCC6)nc5)c(F)cc4ncc31)OCC21CCC1 [Example A-162, 6-fluoro-2-methyl-7-(6-(3-(pyrrolidin-1-yl)propoxy)pyridin-3-yl)-2,9-dihydro-1H-spiro[8-oxa-2,4,10a-triazanaphtho[2,1,8-cde]azulene-10,1′-cyclobutan]-1-one] | 360 |
| COc1cc2ncc3c4c2c(c1-c1ccc(OCCCN2CCCCC2)nc1)OC[C@@H](C)n4c(=O)n3C [Example A-32, (R)-6-methoxy-2,10-dimethyl-7-(6-(3-(piperidin-1-yl)propoxy)pyridin-3-yl)-9,10-dihydro-8-oxa-2,4,10a-triazanaphtho[2,1,8-cde]azulen-1(2H)-one] | 940 |
| C[C@H]1COc2c(-c3ccc(OCCCN(C)C)nc3)ccc3ncc4c(c23)n1c(=O)n4C [Example A-178, (S)-7-(6-(3-(dimethylamino)propoxy)pyridin-3-yl)-2,10-dimethyl-9,10-dihydro-8-oxa-2,4,10a-triazanaphtho[2,1,8-cde]azulen-1(2H)-one] | 250 |
| Cn1c(=O)n2c3c4c(c(-c5ccc(OCCCN6CC[C@H](F)C6)nc5)c(F)cc4ncc31)OCC21CCC1 [Example A-161, (S)-6-fluoro-7-(6-(3-(3-fluoropyrrolidin-1-yl)propoxy)pyridin-3-yl)-2-methyl-2,9-dihydro-1H-spiro[8-oxa-2,4,10a-triazanaphtho[2,1,8-cde]azulene-10,1′-cyclobutan]-1-one] | 320 |
| Cn1c(=O)n2c3c4c(c(-c5ccc(OCCCN6CCCCC6)nc5)ccc4ncc31)NCC21CCC1 [Example A-202, 2-methyl-7-(6-(3-(piperidin-1-yl)propoxy)pyridin-3-yl)-8,9-dihydrospiro[2,4,8,10a-tetraazanaphtho[2,1,8-cde]azulene-10,1′-cyclobutan]-1(2H)-one] | 230 |
| Cn1c(=O)n2c3c4c(c(-c5ccc(OCCCN6CCCCC6)nc5)c(F)cc4ncc31)OCC2C1CC1 (stereo not shown) [Example A-27, 10-cyclopropyl-6-fluoro-2-methyl-7-(6-(3-(piperidin-1-yl)propoxy)pyridin-3-yl)-9,10-dihydro-8-oxa-2,4,10a-triazanaphtho[2,1,8-cde]azulen-1(2H)-one] | 280 |
| CC(C)C[C@H]1COc2c(-c3ccc(OCCCN4CCCCC4)nc3)c(F)cc3ncc4c(c23)n1c(=O)n4C [Example A-9, (S)-6-fluoro-10-isobutyl-2-methyl-7-(6-(3-(piperidin-1-yl)propoxy)pyridin-3-yl)-9,10-dihydro-8-oxa-2,4,10a-triazanaphtho[2,1,8-cde]azulen-1(2H)-one] | 200 |
| Cn1c(=O)n2c3c4c(c(-c5ccc(OCCCN6CCCCC6)nc5)c(F)cc4ncc31)OCCC2 [Compound A-154] | 710 |
| C[C@@H]1COc2c(-c3ccc(OCCCN(C)C)nc3)ccc3ncc4c(c23)n1c(=O)n4C [Example A-181, (R)-7-(6-(3-(dimethylamino)propoxy)pyridin-3-yl)-2,10-dimethyl-9,10-dihydro-8-oxa-2,4,10a-triazanaphtho[2,1,8-cde]azulen-1(2H)-one] | 720 |
| C[C@@H]1CNc2c(-c3ccc(OCCCN4CCCCC4)nc3)c(F)cc3ncc4c(c23)n1c(=O)n4C [Example A-195, (R)-6-fluoro-2,10-dimethyl-7-(6-(3-(piperidin-1-yl)propoxy)pyridin-3-yl)-2,8,9,10-tetrahydro-1H-2,4,8,10a-tetraazanaphtho[2,1,8-cde]azulen-1(2H)-one] | 410 |
| CC[C@H]1COc2c(-c3ccc(OCCCN4CCCCC4)nc3)c(F)cc3ncc4c(c23)n1c(=O)n4C [Example A-23, (S)-10-ethyl-6-fluoro-2-methyl-7-(6-(3-(piperidin-1-yl)propoxy)pyridin-3-yl)-9,10-dihydro-8-oxa-2,4,10a-triazanaphtho[2,1,8-cde]azulen-1(2H)-one] | 420 |
| COCC1COc2c(-c3ccc(OCCCN4CCCCC4)nc3)c(F)cc3ncc4c(c23)n1c(=O)n4C (stereo not shown) [Example A-49, 6-fluoro-10-(methoxymethyl)-2-methyl-7-(6-(3-(piperidin-1-yl)propoxy)pyridin-3-yl)-9,10-dihydro-8-oxa-2,4,10a-triazanaphtho[2,1,8-cde]azulen-1(2H)-one] | 860 |
| CN(C)CCCOc1ccc(-c2ccc3ncc4c5c3c2OCC2(CCC2)n5c(=O)n4C)cn1 [Example A-185, 7-(6-(3-(dimethylamino)propoxy)pyridin-3-yl)-2-methyl-2,9-dihydro-1H-spiro[8-oxa-2,4,10a-triazanaphtho[2,1,8-cde]azulene-10,1′-cyclobutan]-1-one] | 250 |
| CC[C@@H]1COc2c(-c3ccc(OCCCN(C)C)nc3)ccc3ncc4c(c23)n1c(=O)n4C [Example A-188, (R)-7-(6-(3-(dimethylamino)propoxy)pyridin-3-yl)-10-ethyl-2-methyl-9,10-dihydro-8-oxa-2,4,10a-triazanaphtho[2,1,8-cde]azulen-1(2H)-one] | 400 |
| C[C@H]1COc2c(-c3ccc(OCCCN4CCCCC4)nc3)c(F)cc3ncc4c(c23)n1c(=O)n4C [Example A-1, (S)-6-fluoro-2,10-dimethyl-7-(6-(3-(piperidin-1-yl)propoxy)pyridin-3-yl)-9,10-dihydro-8-oxa-2,4,10a-triazanaphtho[2,1,8-cde]azulen-1(2H)-one] | 790 |
